From paper PMC6934184, “Selective DNA-PKcs inhibition extends the therapeutic index of localized radiotherapy and chemotherapy” (The Journal of Clinical Investigation, 2019)

Molecular target: T1, PI4KB (PI4K beta) (Homo sapiens, UniProt Q9UBF8)
T1 construct: purchased Thermo Fisher Scientific (Life Technologies) SelectScreen
Assay: SelectScreen Adapta
Format: biochemical
Procedure, shortened: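 NU5455 was profiled across the SelectScreen Broad panel of kinase activity and binding assays. Z'LYTE reactions such as CSF1R ran at apparent Km ATP, while the Adapta CAMK1 assay used ATP listed as 10. Values are given as percent.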

T1 sequence (Q9UBF8 whole entry): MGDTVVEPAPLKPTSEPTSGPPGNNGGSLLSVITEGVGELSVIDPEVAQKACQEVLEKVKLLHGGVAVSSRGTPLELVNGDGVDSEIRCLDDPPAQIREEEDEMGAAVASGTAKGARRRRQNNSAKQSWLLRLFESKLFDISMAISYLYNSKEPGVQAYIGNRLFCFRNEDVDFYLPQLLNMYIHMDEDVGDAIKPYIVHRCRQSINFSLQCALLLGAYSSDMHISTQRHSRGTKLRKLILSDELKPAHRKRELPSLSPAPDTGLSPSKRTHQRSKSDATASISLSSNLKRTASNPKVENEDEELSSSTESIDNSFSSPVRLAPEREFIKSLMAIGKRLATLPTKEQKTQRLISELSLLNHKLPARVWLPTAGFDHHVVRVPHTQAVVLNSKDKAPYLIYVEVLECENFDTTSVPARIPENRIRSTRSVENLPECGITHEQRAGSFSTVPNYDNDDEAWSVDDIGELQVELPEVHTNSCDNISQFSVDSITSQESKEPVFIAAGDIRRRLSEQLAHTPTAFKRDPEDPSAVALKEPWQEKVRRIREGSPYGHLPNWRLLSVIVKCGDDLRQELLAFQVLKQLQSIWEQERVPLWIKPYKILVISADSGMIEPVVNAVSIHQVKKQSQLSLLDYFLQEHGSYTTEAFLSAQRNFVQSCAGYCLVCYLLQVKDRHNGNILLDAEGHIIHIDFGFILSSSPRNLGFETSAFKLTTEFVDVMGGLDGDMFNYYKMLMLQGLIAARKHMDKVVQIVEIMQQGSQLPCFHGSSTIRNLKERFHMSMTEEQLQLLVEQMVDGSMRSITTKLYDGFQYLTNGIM

CN(C(=O)CN1CCOCC1)c1ccc2sc3c(-c4cccc5c(=O)cc(N6CC7CCC(C6)O7)oc45)cccc3c2c1 [NU5455]
inhibition at 1 µM: -4.7%
